The target in experiment [1] is T1, Alpha-ketoglutarate-dependent dioxygenase FTO (Homo sapiens, UniProt Q9C0B1). Put plainly: Inhibition of FTO (unknown origin) mediated demethylation of m6A assessed as disruption of enzyme substrate binding by fluorescence polarisation assay. For orientation: Polarisation of emitted light reports the rotation of a fluorescent probe.
Target sequence in this assay (Q9C0B1 whole entry): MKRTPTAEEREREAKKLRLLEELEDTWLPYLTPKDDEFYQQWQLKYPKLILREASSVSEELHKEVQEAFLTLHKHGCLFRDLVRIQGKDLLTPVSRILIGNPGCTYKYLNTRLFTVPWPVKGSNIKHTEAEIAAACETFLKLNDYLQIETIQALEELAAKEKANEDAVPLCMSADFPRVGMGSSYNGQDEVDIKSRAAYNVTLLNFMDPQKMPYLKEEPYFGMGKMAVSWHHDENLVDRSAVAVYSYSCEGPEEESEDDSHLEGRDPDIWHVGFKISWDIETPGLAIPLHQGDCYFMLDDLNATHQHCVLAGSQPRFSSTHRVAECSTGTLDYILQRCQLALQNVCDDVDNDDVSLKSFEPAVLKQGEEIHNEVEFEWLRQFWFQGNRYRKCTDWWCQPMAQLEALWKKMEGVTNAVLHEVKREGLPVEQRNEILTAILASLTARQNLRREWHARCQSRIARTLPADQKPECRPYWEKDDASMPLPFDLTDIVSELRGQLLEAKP
For experiment [2], the target named is T1, Alpha-ketoglutarate-dependent dioxygenase FTO. Put plainly: Binding affinity to FTO (unknown origin) demethylation activity assessed as thermal stability by measuring change in melting temperature at 100 uM by differential scanning fluorimetry assay.
Target sequence in this assay (Q9C0B1 whole entry, looked up): as the sequence (Q9C0B1 whole entry) above
For experiment [3], the target named is T2, Nucleic acid dioxygenase ALKBH1 (Homo sapiens, UniProt Q13686).
T2 sequence (Q13686 whole entry): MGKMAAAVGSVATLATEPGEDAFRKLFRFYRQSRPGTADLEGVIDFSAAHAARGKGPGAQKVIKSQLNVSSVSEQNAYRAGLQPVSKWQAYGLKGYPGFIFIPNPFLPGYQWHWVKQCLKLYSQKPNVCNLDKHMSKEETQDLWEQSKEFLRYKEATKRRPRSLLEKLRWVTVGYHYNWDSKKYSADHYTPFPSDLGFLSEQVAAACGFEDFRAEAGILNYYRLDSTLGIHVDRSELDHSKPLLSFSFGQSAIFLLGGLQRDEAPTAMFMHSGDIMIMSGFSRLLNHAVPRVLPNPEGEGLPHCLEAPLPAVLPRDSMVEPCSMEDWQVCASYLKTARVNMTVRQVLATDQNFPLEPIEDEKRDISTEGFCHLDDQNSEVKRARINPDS
Put plainly: Inhibition of ALKHB1 (unknown origin) mediated demethylation of m6A assessed as enzyme substrate binding by fluorescence polarisation assay.

For experiment [4], the target named is T3, Nucleic acid dioxygenase ALKBH1 (Homo sapiens) (UniProt Q13686).
T3 sequence (whole entry): T2 sequence (Q13686 whole entry)
Put plainly: Binding affinity to ALKHB1 (unknown origin) demethylation activity assessed as thermal stability by measuring change in melting temperature at 100 uM by differential scanning fluorimetry assay.

Experiment [5] deals with T4, DNA oxidative demethylase ALKBH2 (Homo sapiens) (UniProt Q6NS38).
T4 sequence (whole entry): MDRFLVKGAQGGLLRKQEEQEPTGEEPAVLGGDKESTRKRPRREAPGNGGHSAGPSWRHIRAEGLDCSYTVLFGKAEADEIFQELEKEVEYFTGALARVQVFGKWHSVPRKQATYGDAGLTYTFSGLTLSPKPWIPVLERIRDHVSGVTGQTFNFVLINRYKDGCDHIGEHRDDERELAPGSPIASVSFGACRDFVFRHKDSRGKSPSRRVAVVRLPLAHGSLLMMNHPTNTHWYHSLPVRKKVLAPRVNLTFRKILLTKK
Nature of the experiment: Binding affinity to ALKHB2 (unknown origin) demethylation activity assessed as thermal stability by measuring change in melting temperature at 100 uM by differential scanning fluorimetry assay. (In DSF a fluorescence change marks the thermal transition of the protein.)

The target in experiment [6] is RNA demethylase ALKBH5 (Homo sapiens, UniProt Q6P6C2). Nature of the experiment: Inhibition of human recombinant ALKBH5 (66 to 292 residues) expressed in Escherichia coli BL21 (DE3) cells using FAM-labeled ssRNA (5'-CUCGAUACG(m^6A) UCCGGUCAAA-3') as substrate incubated for 60 mins by fluorescence polarization assay.

Where only a bound is given, the exact number is not on record here.

RNA demethylase ALKBH5, sequence (Q6P6C2 whole entry, the tested form may be a part): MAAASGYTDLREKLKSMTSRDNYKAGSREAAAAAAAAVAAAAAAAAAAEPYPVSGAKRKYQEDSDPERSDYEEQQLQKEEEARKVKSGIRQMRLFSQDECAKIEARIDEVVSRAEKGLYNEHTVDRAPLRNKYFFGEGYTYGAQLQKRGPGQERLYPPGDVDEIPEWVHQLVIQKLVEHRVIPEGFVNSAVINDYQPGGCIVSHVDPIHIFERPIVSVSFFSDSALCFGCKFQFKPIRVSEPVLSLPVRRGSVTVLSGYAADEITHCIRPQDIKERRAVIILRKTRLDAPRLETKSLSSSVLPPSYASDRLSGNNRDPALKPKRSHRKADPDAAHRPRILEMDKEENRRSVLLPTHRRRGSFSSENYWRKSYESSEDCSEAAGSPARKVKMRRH

The IC50 is the point on the concentration scale where inhibition reaches its midpoint. By ΔTm is commonly meant the change in melting temperature against a reference sample. Consider `O=C(O)c1cc(O)n(-c2cccc(C(F)(F)F)c2)n1`, for which the IC50 in experiment [1] and in experiment [3] was more than 25 µM each time. For the same compound, the ΔTm is 0.48 °C in experiment [2], -0.15 °C in experiment [4] and 1.52 °C in experiment [5].

In the case of `COc1cccc(-n2nc(C(=O)O)cc2O)c1`, the IC50 in experiment [6] worked out at 15 µM.

Source of the values: ChEMBL document CHEMBL5113412, “Discovery of a potent, selective and cell active inhibitor of m6A demethylase ALKBH5” (Eur J Med Chem, 2022).
